{"source": "patent US10370391B2", "about": "“Hydrogen peroxide-activable, anti-oxidant compounds and methods using same” (Beth Israel Deaconess Medical Center, Inc., priority 2014, dated 2019)", "key": {"[1]": {"test": "H2O2 scavenging by peroxalate chemiluminescence (diphenyl oxalate, rubrene)", "experimental": "FIG. 21 is a bar graph illustrating H2O2-scavenging by BRAP-encapsulated PLGA microparticles. BRAP-encapsulated PLGA microparticles were incubated in H2O2 solution (10 μM) for 10 minutes, and the level of H2O2 was determined by peroxalate chemiluminesce using rubrene (1 mg) and diphenylperoxalate (10 mg).\n(§1) Without wishing to be limited by any theory, BRAP could scavenge H2O2 during its H2O2-mediated boronate oxidation. This possibility was investigated using peroxalate chemiluminescence. Peroxalate chemiluminescence has been used as a versatile tool for the detection of a variety of chemical species including fluorescent molecules and H2O2 because of its excellent specificity and simplicity (Hadd, et al., 1999, J. Chem. Educ. 76:1237; Lee, et al., 2011, Bull. Korean Chem. Soc. 32:2187). […] A majority of H2O2 was scavenged by the same concentration of BRAP within 1 minutes.\nThe ability of the boronate compound to scavenge H2O2 was evaluated by measuring the chemiluminescence intensity after the reaction with diphenyl oxalate solution including rubrene. The boronate (1 μM, or 10 μM) was added in the H2O2 solution (10 μM). After 1 min reaction with H2O2, diphenyl oxalate solution was added to the H2O2 solution, and the chemiluminescence intensity was measured by using a luminometer (Femtomaster FB 12, Zylux Corporation, TN, US; FIG. 13).\nThe ability of BRAP to scavenge H2O2 was evaluated by measuring the chemiluminescence intensity after the reaction with diphenyl oxalate solution including rubrene. BRAP (1 μM, 5 μM, 10 μM, 20 μM) was added in the H2O2 solution (10 μM). After 1, 5 or 10 min reaction with H2O2, diphenyl oxalate solution was added to the H2O2 solution, and the chemiluminescence intensity was measured by using a luminometer (Femtomaster FB 12, Zylux Corporation, TN, US)."}, "[2]": {"tested_on": "nitric oxide production in LPS-treated cells", "test": "Nitric oxide generation in LPS-treated cells (Griess reaction)", "type": "cell-based", "settings": "time and dose-dependent", "experimental": "(§2) FIG. 4, comprising FIGS. 4A-4F, is a set of graphs, bar graphs and images illustrating anti-oxidant and anti-inflammatory effects of BRAP in vitro. […] The generation of ROS was monitored by flow cytometry as an indicator of DCF fluorescence. Fluorescence was analyzed in 10,000 cells with excitation at 480 nm and emission at 530 nm. FIG. 4C: Protective effect of BRAP on H2O2— stimulated adult rat cardiomyocytes. V=vehicle, *<0.05 vs. V+H2O2 (n=4). […] (n=4/group).\nNitric oxide is one of major sources of oxidative stress and a well-known pro-inflammatory mediator in the pathogenesis of inflammation (Lundberg, et al., 1997, Nature Medicine 3:30). The effects of BRAP on the generation of nitric oxide in LPS-treated cells were studied using a colorimetric assay based on the Griess reaction."}, "[3]": {"test": "Stability of BRAP under acidic condition (1H NMR)", "type": "physicochemical", "settings": "pH 3.0, 72 hours of incubation", "experimental": "FIG. 2, comprising FIGS. 2A-2C, illustrates H2O2 scavenging effects of BRAP. FIG. 2A: Exemplary change of UV-absorbance of BRAP in the presence of H2O2. FIG. 2B: H2O2 scavenging by various concentrations of BRAP. H2O2 solution (10 μM) was mixed with HBA or BRAP for 1 min, and the chemiluminescent intensity was measured by adding diphenyl oxalate (10 mg) and rubrene (1 mg). *p<0.01, **p<0.001 relative to H2O2 only group (n=4/group). FIG. 2C: ^1H NMR spectrum of BRAP under acidic condition (pH=3.0) after 72 h.\nas §1"}, "[4]": {"tested_on": "mouse macrophage (RAW 264.7) cells stimulated by LPS", "test": "Intracellular ROS generation in LPS-stimulated macrophages (DCFH-DA, flow cytometry)", "type": "cell-based", "settings": "BRAP 0.25 mM, compared with 0.5 mM of HBA; LPS 1 μg/mL", "experimental": "as §2\nThe anti-oxidant activities of BRAP were examined using mouse macrophage (RAW 264.7) and fibroblast (NIH/3T3) cells stimulated by LPS (lipopolysaccharide) (FIGS. 4A-4B). Intracellular ROS production in the stimulated cells was analyzed by flow cytometry using DCFH-DA ([…]-diacetate), which can be oxidized by the action of various intracellular oxidants such as H2O2 and hydroxyl radical to become fluorescent […] (DCF) (Kim, et al., 2011, Biomat. 32:3021; Cho, et al., 2012, Adv. Funct. Mat. 22:4038). Untreated cells have no significant DCF fluorescence."}, "[5]": {"test": "Activation of BRAP by H2O2, UV spectroscopy (absorbance at 273 nm)", "type": "physicochemical", "settings": "after 90 minutes of treatment with H2O2", "experimental": "The activation of BRAP by H2O2 was also studied using UV spectroscopy. BRAP was mixed with H2O2 and the change in UV absorbance was monitored over time.\nBRAP was dissolved in PBS (pH 7.4) at a concentration of 1 mM and was incubated at 37° C. in the presence of 100 μM of H2O2. The concentration of HBA generated from BRAP was measured using a UV spectrometer at appropriate time points."}, "[6]": {"tested_on": "H2O2-stimulated adult rat cardiomyocytes", "test": "Protection from H2O2-induced cell death in ARVC", "type": "cell-based", "settings": "H2O2 0.25 mM; concentration dependent; vs vehicle", "experimental": "as §2\nSince cardiovascular disease is one of the most common and clinically relevant problems associated with oxidative stress injury, the effect of BRAP on cellular protection from the H2O2-induced cell death was further examined using ARVC in vitro."}}, "data": [{"smiles": "CC1(CO)COB(c2ccc(CO)cc2)OC1", "note": "[BRAP, (4-(5-(hydroxymethyl)-5-methyl-1,3,2-dioxaborinan-2-yl)phenyl)methanol]", "values": [{"measurement": "chemiluminescence intensity (H2O2 scavenging)", "setting": "[1]; H2O2 solution 10 μM, BRAP, concentration-dependent", "result": "significant reduction in chemiluminescence intensity"}, {"measurement": "time in which a majority of H2O2 was scavenged", "setting": "[1]; same concentration of BRAP as H2O2", "result": "≤ 1", "unit": "min"}, {"measurement": "inhibition of nitric oxide production", "setting": "[2]", "result": "inhibitory effects"}, {"measurement": "stability in acidic environment", "setting": "[3]", "result": "not influenced"}, {"measurement": "inhibition of LPS-induced ROS generation", "setting": "[4]", "result": "significantly stronger inhibitory effects"}, {"measurement": "change in UV absorbance (HBA generation)", "setting": "[5]", "result": "no further increase in UV absorbance"}, {"measurement": "protection from H2O2-induced cell death", "setting": "[6]", "result": "significant protection"}]}]}
